Test results published in PubChem BioAssay (NCI).
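Cultured in 96-well plates, cells were exposed to test compound for 48 hours across five concentrations. At the TGI there is no net growth.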 Where a SMILES comes first, the peptide text is derived from it. The star is where a group is joined. Cbz = O=C(OCc1ccccc1)*

Legend:
Assay in all cases: growth of human tumour cells (NCI), 48 h
MOLT-4 leukemia = tested on: MOLT-4 leukemia
SK-MEL-28 melanoma = tested on: SK-MEL-28 melanoma
SK-MEL-5 melanoma = tested on: SK-MEL-5 melanoma
MDA-N = tested on: MDA-N
OVCAR-8 ovarian = tested on: OVCAR-8 ovarian
UACC-257 melanoma = tested on: UACC-257 melanoma
NCI-H522 lung = tested on: NCI-H522 lung
BT-549 breast = tested on: BT-549 breast
TK-10 renal = tested on: TK-10 renal
RXF 393 renal = tested on: RXF 393 renal
COLO 205 colon = tested on: COLO 205 colon
U251 CNS = tested on: U251 CNS
SNB-75 CNS = tested on: SNB-75 CNS
HOP-92 NSCLC = tested on: HOP-92 NSCLC

Row | Compound | TGI (MOLT-4 leukemia) [µM] | TGI (SK-MEL-28 melanoma) [µM] | TGI (SK-MEL-5 melanoma) [µM] | TGI (MDA-N) [µM] | TGI (OVCAR-8 ovarian) [µM] | TGI (UACC-257 melanoma) [µM] | TGI (NCI-H522 lung) [µM] | TGI (BT-549 breast) [µM] | TGI (TK-10 renal) [µM] | TGI (RXF 393 renal) [µM] | TGI (COLO 205 colon) [µM] | TGI (U251 CNS) [µM] | TGI (SNB-75 CNS) [µM] | TGI (HOP-92 NSCLC) [µM]
1 | S=C1C=C(c2ccccc2)Sc2ccccc2N1 | > 100 | > 100 | > 100 | > 100 | > 100 | > 100 | > 100 | > 100 | > 100 | > 100 | > 100 | > 100 | > 100 | –
2 | NC(=O)N(O)c1cccc(Br)c1 | > 100 | > 100 | > 100 | > 100 | > 100 | > 100 | > 100 | > 100 | > 100 | > 100 | > 100 | > 100 | > 100 | > 100
3 | CC(=O)OC[C@@]12C[C@H]3C(=O)C(C)(C)C[C@H]3[C@]1(C)[C@@H](OC(C)=O)[C@]1(O)[C@H]([C@@H](OC(=O)c3ccccc3)[C@@H](C)[C@H]1OC(C)=O)[C@H]2OC(C)=O | > 20 | – | > 20 | > 20 | > 20 | > 20 | > 20 | > 20 | > 20 | > 20 | > 20 | > 20 | > 20 | > 20
4 | CCOC(=O)CCC(NC(=O)OCc1ccccc1)C(=O)NC(CCC(=O)OCC)C(=O)NC(CCC(=O)OCC)C(=O)NC(CCC(=O)OCC)C(=O)NC(CCC(=O)OCC)C(=O)OCC (stereo unspecified) | > 100 | > 100 | > 100 | > 100 | > 100 | > 100 | > 100 | > 100 | > 100 | > 100 | > 100 | > 100 | > 100 | –
5 | O=C(C1OC1c1ccc([N+](=O)[O-])cc1)C12CC3CC(CC(C3)C1)C2 (stereo unspecified) | 49.3 | 33.4 | 29.1 | 24.3 | 38.2 | 30.9 | 54 | 40.2 | 33.3 | 46.4 | 35.4 | 24.6 | 39.4 | 40.3
6 | Cc1n[nH]c(=O)n1N=C(c1ccccc1)c1ccccc1 | > 100 | > 100 | > 100 | > 100 | > 100 | > 100 | > 100 | > 100 | > 100 | > 100 | > 100 | > 100 | – | > 100
7 | CC/C(Cl)=N\OC(=O)Nc1ccc(C#N)cc1 | 11 | 33.8 | 25.9 | 30 | 30.7 | 29.8 | 2.82 | 28.3 | 30.1 | 21.4 | 3.3 | 30.8 | 28.2 | 8.54
8 | CN1C[C@@H]2CCCN2P1Oc1cccc2cccnc12 (stereo partly specified) | 58.1 | > 100 | > 100 | > 100 | > 100 | > 100 | > 100 | > 100 | > 100 | > 100 | > 100 | > 100 | > 100 | > 100
9 | CSc1c(C#N)c2n(c3ccccc3[n+]2C)c2ncccc12 | > 100 | 49.1 | 30.5 | 58.6 | 73.4 | – | 48.6 | 70.5 | – | 37.2 | 54.2 | 70.8 | 50.4 | –
10 | Cc1nc2c(-c3ccccc3)[nH]c(C)c2c(=O)o1 | > 100 | > 100 | > 100 | > 100 | > 100 | > 100 | > 100 | > 100 | > 100 | > 100 | > 100 | > 100 | > 100 | > 100
11 | C[C@@H]1CCC2[C@@H](C)C(=O)O[C@@H]3C4C[C@@H]1[C@@]23OO[C@@]4(C)O (stereo partly specified) | > 100 | > 100 | > 100 | > 100 | > 100 | > 100 | > 100 | > 100 | > 100 | > 100 | > 100 | > 100 | > 100 | > 100
12 | C=C(Cl)C(Cl)(CBr)CCC(Cl)C(C)(C)Cl (stereo unspecified) | 53 | 3.8 | 24.7 | 7.55 | 13 | 3.79 | 23 | 20.1 | 2.71 | 10.9 | 10.5 | 1.69 | 1.77 | 2.52
13 | COc1ccc(C)cc1NC(=S)N/N=C/c1ccc(SC)cc1 | > 100 | > 100 | 51.9 | > 100 | > 100 | – | > 100 | > 100 | – | > 100 | > 100 | – | > 100 | > 100
14 | Cc1cc(=Nc2ccc3c(c2)c(N)cc(C)[n+]3C)nc(N)n1C | > 100 | > 100 | > 100 | > 100 | > 100 | > 100 | > 100 | > 100 | > 100 | > 100 | > 100 | > 100 | > 100 | > 100
15 | O=C(/C=C/c1ccc(O)c(O)c1)OCCOC(=O)/C=C/c1ccc(O)c(O)c1 | 44.9 | > 100 | 32.7 | 41.6 | > 100 | 44.5 | 46.9 | > 100 | > 100 | 51.9 | 42.3 | 59.2 | – | > 100
16 | Clc1nc2c(-c3cccs3)ncnc2n1Cc1ccccc1 | > 100 | > 100 | > 100 | > 100 | > 100 | 61.9 | > 100 | > 81.8 | 61.5 | 51.2 | > 100 | > 100 | 58.7 | 62
17 | CCOC(=O)c1nc2cc(C(F)(F)F)ccc2nc1Nc1ccc(Cl)c(Cl)c1 | > 100 | > 100 | > 100 | > 100 | > 100 | > 100 | > 100 | > 100 | > 100 | > 100 | > 100 | > 100 | > 100 | 94.1

Row | Compound | TGI (MOLT-4 leukemia) [µM] | TGI (SK-MEL-28 melanoma) [µM] | TGI (SK-MEL-5 melanoma) [µM] | TGI (MDA-N) [µM] | TGI (OVCAR-8 ovarian) [µM] | TGI (UACC-257 melanoma) [µM] | TGI (NCI-H522 lung) [µM] | TGI (BT-549 breast) [µM] | TGI (TK-10 renal) [µM] | TGI (RXF 393 renal) [µM] | TGI (COLO 205 colon) [µM] | TGI (U251 CNS) [µM] | TGI (SNB-75 CNS) [µM] | TGI (HOP-92 NSCLC) [µM]
18 | CC(C)(C)/C(O)=C\c1nc2cc(C(F)(F)F)ccc2[nH]c1=O | – | > 100 | > 100 | > 100 | > 100 | > 100 | > 100 | > 100 | > 100 | > 100 | > 100 | > 100 | > 100 | > 100
19 | NC(CCCCNc1ccn(C2OC(CO)C(O)C2O)c(=O)n1)C(=O)O (stereo unspecified) | > 100 | > 100 | > 100 | > 100 | > 100 | > 100 | > 100 | > 100 | > 100 | > 100 | > 100 | > 100 | > 100 | > 100
20 | COC(=O)C1=C(O)C(C(=O)OC)[C@]2(O)[C@H](C(=O)OC)[C@H]1C[C@@H](c1ccc(OC)cc1)[C@H]2C(=O)OC (stereo partly specified) | 68.1 | > 100 | 55.8 | 40.7 | > 100 | > 100 | 17.7 | > 100 | > 100 | 42 | > 100 | 65.6 | 91.8 | > 100
21 | CO[C@H]1O[C@@H]2CO[C@@H](c3ccccc3)O[C@H]2C[C@]12CCC/C=C\CO2 | 32 | 26.6 | 44.1 | 26.9 | 25.2 | > 75 | 23.6 | 23.9 | 59.2 | 28.3 | 26.6 | 23.5 | 61.8 | 28.4
22 | N#Cc1c(NC(=S)NCc2ccccc2)sc2c1CCN(N1CCc3c(sc(NC(=S)NCc4ccccc4)c3C#N)C1)C2 | > 100 | > 100 | > 100 | > 100 | > 100 | > 100 | > 100 | > 100 | > 100 | > 100 | > 100 | > 100 | > 100 | > 100
23 | Nc1cccc(OCc2nc(N)nc(N)c2-c2ccc(Cl)cc2)c1 | > 100 | > 100 | > 100 | > 100 | > 100 | > 100 | > 100 | > 100 | > 100 | > 100 | 44.1 | > 100 | > 100 | > 100
24 | O=C1c2ccccc2C(=O)N1c1ccc(OCCN2CCCCC2)cc1 | > 100 | > 100 | > 100 | > 100 | > 100 | > 100 | > 100 | > 100 | > 100 | > 100 | > 100 | > 100 | – | > 100
25 | O/N=C\c1cc(O)c(O)c(/C=N/O)c1 | > 100 | > 100 | > 100 | > 100 | > 100 | > 100 | 71.9 | > 100 | > 100 | > 100 | > 100 | > 100 | > 100 | > 100
26 | Cc1cccc2c1C(=O)C(C1OC(=O)c3ccccc31)C2 (stereo unspecified) | > 100 | > 100 | > 100 | > 100 | > 100 | > 100 | > 100 | > 100 | > 100 | > 100 | > 100 | > 100 | > 100 | > 100
27 | O=[N+]([O-])C1(C2([N+](=O)[O-])CCCC2)CCCC1 | > 100 | > 100 | > 100 | > 100 | > 100 | > 100 | > 100 | > 100 | > 100 | > 100 | > 100 | > 100 | > 100 | –
28 | O=C(O)CCC1(c2ccccc2)NC(=O)NC1=O (stereo unspecified) | – | > 100 | > 100 | > 100 | > 100 | > 100 | > 100 | > 100 | > 100 | > 100 | > 100 | > 100 | > 100 | > 100
29 | COC(=O)CCCCC/C(=C\C(=O)C(Cl)(Cl)Cl)OC | 60.1 | > 100 | > 100 | 71.3 | 73.6 | 57.7 | 41.1 | > 100 | 86.9 | 41.1 | 57.7 | 90 | 72.7 | 57.1
30 | N#Cc1c(-c2ccc(Cl)cc2)c(C#N)c(=O)n(NS(=O)(=O)c2ccccc2)c1-c1ccccc1 | > 25 | > 25 | > 25 | > 25 | – | > 25 | – | > 25 | > 25 | > 25 | > 25 | > 25 | – | > 25
31 | CCOC(=O)C(C)NC(=O)C(C)NC(=O)C(C)NC(=O)C(C)NC(=O)C(C)NC(=O)C(C)NC(=O)C(C)NC(=O)OCc1ccccc1 (stereo unspecified) (Cbz-AAAAAAA-OEt; configuration not given here) | > 100 | > 100 | > 100 | > 100 | > 100 | – | > 100 | > 100 | > 100 | > 100 | > 100 | > 100 | > 100 | > 100
32 | C#CCOC(=O)c1ccccc1OC(C)=O | > 100 | – | > 100 | > 100 | > 100 | > 100 | > 100 | > 100 | > 100 | > 100 | > 100 | > 100 | > 100 | > 100
33 | COc1cc2c(cc1OC)CCN=C2 | > 100 | > 100 | > 100 | > 100 | > 100 | > 100 | – | > 100 | > 100 | > 100 | > 100 | > 100 | > 100 | > 100
